Where two headings read alike, the source gives them in different places.
How the values were obtained:
[1] = tested on: Key Grass and Sedge Weeds as well as Grass Crops; experiment: Post-emergent Test II herbicidal activity (Table 6); assay type: in vivo; details: post-emergence, 336 h; for pest or weed control at 66 g/ha: 66 g ai/ha; for pest or weed control at 132 g/ha: 132 g ai/ha
Outline: (§1)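 Visual injury ratings (0 = no injury, 100 = complete kill) were taken 14 d after treatment, relative to untreated plants. Seedlings at the first–second true leaf stage received overhead spray at 187 L/ha; the highest rate was serially diluted to ½×, ¼×, ⅛× and 1/16×.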

[2] = tested on: Key Broadleaf Weed and Crop Species; experiment: Post-emergent Test II herbicidal activity (Table 5); assay type: in vivo; details: post-emergence, 336 h, 14 days after application; for pest or weed control at 66 g/ha: application rate 66 g ai/ha; for pest or weed control at 132 g/ha: application rate 132 g ai/ha
Outline: as §1

[3] = CYPES: yellow nutsedge (Cyperus esculentus), read-out: Visual Growth Reduction (%) 14 Days After Application, CYPES
[4] = DIGSA: crabgrass (Digitaria sanguinalis), read-out: Visual Growth Reduction (%) 14 Days After Application, DIGSA
[5] = ECHCG: barnyardgrass (Echinochloa crus-galli), read-out: Visual Growth Reduction (%) 14 Days After Application, ECHCG
[6] = ORYSA: rice (Oryza sativa), crop, read-out: Visual Growth Reduction (%) 14 Days After Application, ORYSA
[7] = SETFA: giant foxtail (Setaria faberi), read-out: Visual Growth Reduction (%) 14 Days After Application, SETFA
[8] = SORVU: grain sorghum (Sorghum vulgare), read-out: Visual Growth Reduction (%) 14 Days After Application, SORVU
[9] = TRZSS (wheat, Triticum aestivum), crop, read-out: Visual Growth Reduction (%) 14 Days After Application, TRZSS
[10] = ZEAMX: maize, corn (Zea mays), crop, read-out: Visual Growth Reduction (%) 14 Days After Application, ZEAMX
[11] = ABUTH: velvetleaf (Abutilon theophrasti), read-out: Visual Growth Reduction (%) 14 Days After Application, ABUTH
[12] = AMARE: redroot pigweed (Amaranthus retroflexus), read-out: Visual Growth Reduction (%) 14 Days After Application, AMARE
[13] = BRSNN: oilseed-rape, canola (Brassica napus), read-out: Visual Growth Reduction (%) 14 Days After Application, BRSNN
[14] = CHEAL: lambsquarters (Chenopodium album), read-out: Visual Growth Reduction (%) 14 Days After Application, CHEAL
[15] = EPHHL: wild poinsettia (Euphorbia heterophylla), read-out: Visual Growth Reduction (%) 14 Days After Application, EPHHL
[16] = HELAN: sunflower (Helianthus annuus), read-out: Visual Growth Reduction (%) 14 Days After Application, HELAN
[17] = VIOTR: wild pansy (Viola tricolor), read-out: Visual Growth Reduction (%) 14 Days After Application, VIOTR

SMILES: COC(=O)c1nc(-c2ccc(C)c(F)c2)c(F)c(N)c1Cl [Compound 213]
- melting point: 127 °C
- pest or weed control at 66 g/ha [1, 3]: 0 to 29%
- pest or weed control at 132 g/ha [1, 3]: 45 to 59%
- pest or weed control at 66 g/ha [1, 4]: 0 to 29%
- pest or weed control at 132 g/ha [1, 4]: 0 to 29%
- pest or weed control at 66 g/ha [1, 5]: 85 to 94%
- pest or weed control at 132 g/ha [1, 5]: 85 to 94%
- pest or weed control at 66 g/ha [1, 6]: 0 to 29%
- pest or weed control at 132 g/ha [1, 6]: 0 to 29%
- pest or weed control at 66 g/ha [1, 7]: 0 to 29%
- pest or weed control at 132 g/ha [1, 7]: 0 to 29%
- pest or weed control at 66 g/ha [1, 8]: 75 to 84%
- pest or weed control at 132 g/ha [1, 8]: 95 to 100%
- pest or weed control at 66 g/ha [1, 9]: 0 to 29%
- pest or weed control at 132 g/ha [1, 9]: 0 to 29%
- pest or weed control at 66 g/ha [1, 10]: 60 to 74%
- pest or weed control at 132 g/ha [1, 10]: 75 to 84%
- pest or weed control at 66 g/ha [2, 11]: 95 to 100%
- pest or weed control at 132 g/ha [2, 11]: 95 to 100%
- pest or weed control at 66 g/ha [2, 12]: 95 to 100%
- pest or weed control at 132 g/ha [2, 12]: 95 to 100%
- pest or weed control at 66 g/ha [2, 13]: 85 to 94%
- pest or weed control at 132 g/ha [2, 13]: 85 to 94%
- pest or weed control at 66 g/ha [2, 14]: 95 to 100%
- pest or weed control at 132 g/ha [2, 14]: 95 to 100%
- pest or weed control at 66 g/ha [2, 15]: 95 to 100%
- pest or weed control at 132 g/ha [2, 15]: 95 to 100%
- pest or weed control at 66 g/ha [2, 16]: 95 to 100%
- pest or weed control at 132 g/ha [2, 16]: 95 to 100%
- pest or weed control at 66 g/ha [2, 17]: 0 to 29%
- pest or weed control at 132 g/ha [2, 17]: 0 to 29%

From patent US9113629B2, “4-amino-6-(4-substituted-phenyl)-picolinates and 6-amino-2-(4-substituted-phenyl)-pyrimidine-4-carboxylates and their use as herbicides” (DOW AGROSCIENCES LLC, priority 2013, dated 2015)
